From patent publication US20250296909A1, “NOVEL BENZENE DERIVATIVE AND IMMUNOSUPPRESSION-RELATED USE THEREOF” (PROVIBIO CO., LTD., priority 2021, published 2025)

Experiments:
[1] = test system: T lymphocyte cell line Jurkat E6-1; assay: Cytotoxicity experiment (CCK-8, relative cell survival); type: cell-based; conditions: 24 hours, untreated cells = 100%
Procedure: To evaluate the cytotoxicity of the compound according to the present invention, the following experiment was conducted.
The T lymphocyte cell line Jurkat E6-1, purchased from the Korean Cell Line Bank, was cultured in RPMI-1640 medium comprising 10% FBS, 100 U/mL penicillin, and 100 μg/mL streptomycin. After culturing, the cells were harvested and centrifuged at 1,300 rpm for 5 minutes. After removal of the supernatant, the cells were resuspended in the same medium at a concentration of approximately 2.2×10^5 cells/mL, and 90 μL of the cell suspension was distributed per well into a 96-well plate (Costar 96 well cell culture plate, Corning). After treating 10 μL of each compound at different concentrations onto the respective wells of the plate, it was cultured for 24 hours at 37° C. in a 5% CO2 incubator. Subsequently, 10 μL of CCK-8 was added to each well, and it was cultured again for 2 hours at 37° C. in a 5% CO2 incubator. Absorbance was then measured at 450 nm to determine the relative cell survival rate compared to untreated cells, as shown in Table 4.
The values listed in Table 4 represent the relative cell survival rates in the groups treated with each compound at different concentrations, with the cell survival rate of untreated cells set as 100%.

spleen T cells = assay: T cell proliferation inhibition (CFSE, FACS), CD3/CD28-activated spleen T cells; type: cell-based, C57BL/6 mice; conditions: Table 2, 3 days, relative to CD3/CD28+DMSO; for inhibition at 10 µM / inhibition at 30 µM / inhibition at 50 µM: Mus musculus, T-cell, 72 h, read-out: Proliferation inhibition rate (%)
Procedure: To investigate whether the compounds obtained in the Preparation Example have an inhibitory effect on T cell proliferation, the T cell proliferation was determined ex vivo using the fluorescent dye carboxyfluorescein diacetate succinimidyl ester (CFSE), which binds to intracellular molecules by covalent bonds.
Spleens were harvested and minced from C57BL/6 mice at 7 weeks of age, and then single cells were isolated using a strainer (40 μm pore size, SPL). Red blood cells were removed using ACK (Ammonium-Chloride-Potassium) lysis buffer to isolate only leukocytes. Subsequently, CD90.2 microbeads (130-121-278, Miltenyi Biotech.) were added, and subjected to react at 4° C. for 20 minutes. After that, spleen T cells were isolated using a MACS Magnetic Stand and LS column. The isolated T cells from the spleen were resuspended in 1 mL of Free media (RPMI-1640+200 U/mL penicillin+200 μg/mL streptomycin), followed by the addition of 0.3 μL of CFSE (10 mM), and reacted at 37° C. for 5 minutes. Subsequently, 10 mL of Free media was added to stop the reaction, and the cells were centrifuged to obtain the cell pellet. RPMI 1640 medium containing 10% FBS, 100 U/mL penicillin, and 100 μg/mL streptomycin was added to suspend the cells, and 2×10^5 cells per well were seeded into a 96-well plate and T cells were activated by treatment with CD3 and CD28 antibodies (each at 0.5 μg/mL).
The compound diluted in DMSO was treated in triplicate at concentrations of 10 μM, 30 μM, and 50 μM, respectively. After incubation at 37° C. with 5% CO2 for 3 days, cell proliferation levels were determined using a FACS Canto machine.
In the FACS graph of FIG. 1, the y-axis represents the quantity (number) of cells, while the x-axis represents the fluorescence level of the cells. […] This reduction in CFSE fluorescence results in a leftward shift along the x-axis in the graph. This indicates cell proliferation.
To collectively indicate the proliferation inhibition rate for the experimental results, the relative value of the proliferation amount after compound administration to the proliferation amount after CD3/CD28+DMSO administration was calculated. Subsequently, it was converted into an inhibition amount and expressed as a percentage, thereby determining the proliferation inhibition rate. Specifically, the proliferation inhibition rate was calculated as follows: […]

| SMILES | Relative cell survival rate (%) ([1]; 10 μM) | Relative cell survival rate (%) ([1]; 20 μM) | Relative cell survival rate (%) ([1]; 30 μM) | Relative cell survival rate (%) ([1]; 50 μM) | inhibition at 10 µM (spleen T cells; 10 μM) | inhibition at 30 µM (spleen T cells; 30 μM) | inhibition at 50 µM (spleen T cells; 50 μM) | Proliferation inhibition rate (%) (spleen T cells; 10 μM) | Proliferation inhibition rate (%) (spleen T cells; 30 μM) | Proliferation inhibition rate (%) (spleen T cells; 50 μM) |
| --- | --- | --- | --- | --- | --- | --- | --- | --- | --- | --- |
| CCCCCCCCCCCCNC(=O)c1cccc(Cl)c1N [Compound 29] | 107% | 80% | 77% | 60% | 5% | 33% | 65% |  |  |  |
| CCCCCCCCCCCCNC(=O)c1c(Cl)ccnc1Cl [Compound 30] | 120% | 109% | 108% | 106% | 16% | 41% | 55% |  |  |  |
| CCCCCCCCCCCCNC(=O)c1cccnn1 [Compound 31] | 111% | 111% | 102% | 102% | 15% | 57% | 69% |  |  |  |
| CCCCCCCCCCCCNC(=O)c1cccnc1Nc1cccc(C(F)(F)F)c1 [Compound 33] | 100% | 91% | 79% | 70% | 33% | 100% | 100% |  |  |  |
| CCCCCCCCCCCCNC(=O)c1ncc(F)cc1F [Compound 34] | 112% | 109% | 101% | 87% | 6% | 43% | 87% |  |  |  |
| CCCCCCCCCCCCNC(=O)c1ccccc1C(=O)O [Compound 37] | 90% | 90% | 90% | 92% | 23% | 55% | 65% |  |  |  |
| CCCCCCCCCCCCNC(=O)c1ccccc1C(F)(F)F [Compound 38] | 90% | 91% | 89% | 89% |  |  |  | 40% | 73% | 85% |
| CCCCCCCCCCCCNC(=O)c1c(Cl)cccc1Cl [Compound 39] | 89% | 102% | 78% | 79% | 7% | 61% | 89% |  |  |  |
| CCCCCCCCCCCC(=O)NCc1ccccc1Br [Compound 43] | 101% | 104% | 108% | 108% | 27% | 50% | 72% |  |  |  |
| CCCCCCCCCCCCNS(=O)(=O)c1ccccc1F [Compound 45] | 96% | 94% | 76% | 74% |  |  |  | 30% | 59% | 97% |
| CCCCCCCCCCCCNC(=O)c1ccccc1[N+](=O)[O-] [Compound 50] | 74% | 75% | 70% | 68% |  |  |  | 0% | 66% | 97% |
| CCCCCCCCCCCCNC(=O)c1ccccc1Nc1cccc(C)c1C [Compound 51] | 99% | 94% | 92% | 90% | 100% | 100% | 100% |  |  |  |
| CCCCCCCCCCCCNC(=O)c1ccccc1-c1ncc[nH]1 [Compound 52] | 88% | 85% | 84% | 84% | 42% | 95% | 100% |  |  |  |
| CCCCCCCCCCCCNC(=O)c1ccccc1C(=O)NC1CCCCC1 [Compound 53] | 96% | 97% | 98% | 95% | 22% | 65% | 85% |  |  |  |
| CCCCCCCCCCCCNS(=O)(=O)c1c(F)cccc1F [Compound 54] | 89% | 83% | 77% | 76% | 55% | 60% | 77% |  |  |  |
| CCCCCCCCCCCCNC(=O)c1ccc(F)c(F)c1F [Compound 55] | 115% | 110% | 108% | 105% | 52% | 82% | 95% |  |  |  |
| C=Cc1ccccc1C(=O)NCCCCCCCCCCCC [Compound 57] | 108% | 108% | 104% | 101% | 93% | 100% | 100% |  |  |  |
| CCCCCCCCCCCCNS(=O)(=O)c1ccccc1[N+](=O)[O-] [Compound 58] | 100% | 98% | 97% | 94% | 39% | 51% | 68% |  |  |  |
| CCCCCCCCCCCCNC(=O)c1ccccc1Oc1ccccc1 [Compound 61] | 96% | 94% | 76% | 74% | 16% | 86% | 98% |  |  |  |
| CCCCCCCCCCCCNC(=O)c1ccccc1I [Compound 63] | 70% | 78% | 75% | 79% | 30% | 78% | 89% |  |  |  |
| CCCCCCCCCCCCNC(=O)c1c(F)cccc1[N+](=O)[O-] [Compound 64] | 91% | 87% | 87% | 87% | 79% | 100% | 100% |  |  |  |
| CCCCCCCCCCCCNC(=O)c1ccccc1NC [Compound 65] | 87% | 84% | 86% | 77% | 39% | 43% | 77% |  |  |  |
